The record followed here is patent US11466028B2, “Fused 1,4-oxazepines as BET protein degraders” (THE REGENTS OF THE UNIVERSITY OF MICHIGAN, priority 2016, dated 2022).

Common to all, as to assay type: cell-based
In one assay the target is T1, BRD4 (Homo sapiens, UniProt O60885).
T1 construct: Collected cells were lysed in lysis buffer; endogenous in cells; host or cells: RS4;11 and MOLM-13 leukemia cells
The assay can be described thus: Western blot, degradation of BRD4 in RS4;11 cells. Particulars: 2.5 h, as compared to Compound A, FIG. 1. As to the method: (§1) Cells were treated with compounds at the indicated concentrations for 2.5 h and 3 h, respectively, for RS4;11 (see FIG. 1) and MOLM-13 (see FIG. 2) cells. Compound A is ((S)-3-benzyl-6,9-dimethyl-2-((1-methyl-1H-pyrazol-4-yl)ethynyl)-4H,6H-thieno[2,3-e][1,2,4]triazolo[3,4-c][1,4]oxazepine). See Cpd. No. 85 of U.S. Appl. No. 62/295,271.
(§2) Collected cells were lysed in lysis buffer [1% CHAPS, 150 mM NaCl, 20 mM Tris-HCl, 1 mM. EDTA, 1 mM EGTA, and COMPLETE proteinase inhibitor (Roche)] for 30 minutes on ice. Protein concentrations were determined using the Bio-Rad Protein Assay Dye reagent. Whole tumor lysates (20 μg) were separated on a 4-20% Novex gels (Invitrogen). The separated proteins were transferred to a PVDF membrane (BIO-RAD) and the PVDF membrane was then blotted with 5% Blotting-Grade Blocker (BIO-RAD) for 1 hour at room temperature. The primary antibodies used were BRD4 rabbit polyclonal antibody [Bethyl Laboratories, Inc, cat #A301] and BRD2 antibody.
(§3) The BIO-RAD Clarity Western ECL Substrates (BIO-RAD) and HyBlot CL film (Denville) were used for signal development and detection using a SRX-101A tabletop processor (Konica Minolta).
For orientation: A western blot detects proteins with antibodies after separation by electrophoresis.

Another assay concerns MDA-MB-231. The assay can be described thus: WST-8 cell growth inhibition assay, MDA-MB-231. Particulars: Homo sapiens, WST-8, Table 6. The method, then:
(§4) Cpd. Nos. 7 and 18 were tested in various triple-negative breast cancer cell lines using the WST-8 cell growth assay.
(In general: Tetrazolium assays rely on reduction of a dye to a coloured formazan, in cell work by metabolically active cells.)

A further assay deals with MOLM-13. The assay can be described thus: CellTiter-Glo cell growth inhibition, MOLM-13. The conditions noted are these: Homo sapiens. In a few lines: (§5)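 Leukemia cells seeded at 2,000 cells/well with serially diluted compounds, 4 days at 37 °C, 5% CO2. Viability by CellTiter-Glo luminescence after 10-20 min at RT. IC50 calculated from the curves.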
In general terms: ATP-based viability assays read luminescence as a measure of living cells.

Another assay deals with AML3. The assay can be described thus: CellTiter-Glo cell viability, AML3 leukemia cell line. The conditions noted are these: Table 5. As to the method:
(§6) Cell growth inhibitory activity of representative Compounds of the Disclosure was determined using the CellTiter-Glo® Luminescent Cell Viability Assay. Cells were seeded in 384-well white opaque cell culture plates at a density of 2,000 cells/well with serially diluted compounds and incubated at 37° C. in an atmosphere of 95% air and 5% CO2 for 4 days. Cell viability was determined using the CellTiter-Glo® Luminescent Cell Viability Assay Kit (Promega, Madison, Wis.) according to the manufacture's instruction. Briefly, a volume of CellTiter-Glo® Reagent equal to the volume of cell culture medium was added to each well, and then the plates were incubated at room temperature for 10-20 minutes. The luminescent signal was measured using a Tecan Infinite M1000 multimode microplate reader (Tecan, Morrisville, N.C.). The half maximal inhibitory concentration (IC50) was calculated using the GraphPad Prism 5 software (GraphPad Software, La Jolla, Calif.).
(§7) Cpd. Nos. 18 and 19 were tested in various leukemia cell lines using the CellTiter-Glo® Luminescent Cell Viability Assay as described in Example 35.

The next assay has as its target T2, BRD2 (Homo sapiens, UniProt P25440).
T2 construct: endogenous in cells; host or cells: RS4;11 and MOLM-13 leukemia cells
The assay can be described thus: Western blot, degradation of BRD2 in RS4;11 cells. Particulars: 2.5 h, as compared to Compound A, FIG. 1. The method, then:
as §1, §2, §3

Another assay deals with MDA-MB-436. The assay can be described thus: WST-8 cell growth inhibition assay, MDA-MB-436. Particulars: Homo sapiens, WST-8, Table 6. As to the method:
as §4

Another assay concerns MOLM16. The assay can be described thus: CellTiter-Glo cell viability, MOLM16 leukemia cell line. The conditions noted are these: Table 5. As to the method: as §6, §7
In another assay the test system is MDA-MB-468. The assay can be described thus: WST-8 cell growth inhibition assay, MDA-MB-468. Particulars: Homo sapiens, WST-8, Table 6. The method, then: as §4
Another assay deals with MDA-MB-453. Nature of the assay: WST-8 cell growth inhibition assay, MDA-MB-453. Particulars: Homo sapiens, WST-8, Table 6. As to the method:
as §4

For another assay, the system named is MDA-MB-474. The assay can be described thus: WST-8 cell growth inhibition assay, MDA-MB-474. The conditions noted are these: WST-8, Table 6. The method, then: as §4
The next assay deals with RS4;11. Nature of the assay: CellTiter-Glo cell growth inhibition, RS4;11. The conditions noted are these: Homo sapiens. The method, boiled down: as §5
A further assay concerns HL60. Nature of the assay: CellTiter-Glo cell viability, HL60 leukemia cell line. Particulars: Homo sapiens, HL-60, Table 5. As to the method: as §6, §7
For the next assay, the system named is MV4; 11. The assay can be described thus: CellTiter-Glo cell viability, MV4;11 leukemia cell line. Particulars: Homo sapiens, Table 5. The method, then:
as §6, §7

The test system of the next assay is MonoMac6. The assay can be described thus: CellTiter-Glo cell viability, MonoMac6 leukemia cell line. Particulars: Homo sapiens, MONO-MAC-6, Table 5. The method, then: as §6, §7

Like-named read-outs stand apart in the source and are kept apart here. Bounds are passed on as bounds.

T2 sequence (P25440 whole entry): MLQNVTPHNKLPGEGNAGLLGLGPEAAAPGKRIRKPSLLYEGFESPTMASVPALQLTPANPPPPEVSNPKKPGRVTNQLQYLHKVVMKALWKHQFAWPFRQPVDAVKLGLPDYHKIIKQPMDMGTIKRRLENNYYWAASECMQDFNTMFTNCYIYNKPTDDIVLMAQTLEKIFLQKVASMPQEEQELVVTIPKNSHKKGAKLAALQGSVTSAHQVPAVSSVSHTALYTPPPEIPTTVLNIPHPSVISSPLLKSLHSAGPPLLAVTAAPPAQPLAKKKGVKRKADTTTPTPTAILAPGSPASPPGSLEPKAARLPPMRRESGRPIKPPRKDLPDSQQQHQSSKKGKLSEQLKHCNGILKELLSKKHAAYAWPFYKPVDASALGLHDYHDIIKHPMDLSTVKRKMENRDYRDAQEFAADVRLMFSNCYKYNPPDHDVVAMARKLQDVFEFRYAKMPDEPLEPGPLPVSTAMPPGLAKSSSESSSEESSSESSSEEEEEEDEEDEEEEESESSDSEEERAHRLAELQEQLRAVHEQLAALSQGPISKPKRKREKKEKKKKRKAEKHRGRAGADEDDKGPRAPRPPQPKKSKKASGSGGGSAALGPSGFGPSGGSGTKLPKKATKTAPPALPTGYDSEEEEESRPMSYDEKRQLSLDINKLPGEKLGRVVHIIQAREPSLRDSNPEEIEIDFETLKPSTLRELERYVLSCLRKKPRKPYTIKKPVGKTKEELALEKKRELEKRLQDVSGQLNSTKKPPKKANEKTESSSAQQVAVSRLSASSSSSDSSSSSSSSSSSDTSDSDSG

As to `Cc1nnc2n1-c1sc(C#Cc3cnn(CCCC#Cc4cccc5c4CN(C4CCC(=O)NC4=O)C5=O)c3)c(Cc3ccccc3)c1CO[C@H]2C` (stereo partly drawn) [Cpd. No. 18, 3-(4-(5-(4-(((S)-3-benzyl-6,9-dimethyl-4H,6H-thieno[2,3-e][1,2,4]triazolo[3,4-c][1,4]oxazepin-2-yl)ethynyl)-1H-pyrazol-1-yl)pent-1-yn-1-yl)-1-oxoisoindolin-2-yl) piperidine-2,6-dione], on BRD4, the “degradation of BRD4 protein (Western blot)” value is given as “induce degradation”. Further, the IC50 (usually the concentration needed to halve the response being measured) with MDA-MB-231 was 0.76 ± 0.08 nM; in the assay on MOLM-13 (MOLM-13, 96 h, 4 days, Table 4, read-out: MOLM-13 IC50), 1 nM; with MOLM-13 (MOLM-13, Table 5, read-out: IC50 (nM) MOLM13) it was 0.5 nM; in the assay with AML3, 0.03 ± 0.006 nM; in the assay on MDA-MB-436, 1.52 ± 0.21 nM; with MOLM16 it was < 0.01 nM. Also, the 50% inhibitory concentration (IC50) was 0.78 ± 0.06 nM in the assay on MDA-MB-468; 0.25 ± 0.04 nM in the assay on MDA-MB-453; 0.31 ± 0.01 nM with MDA-MB-474; 0.03 nM with RS4;11 (RS4-11, 96 h, 4 days, Table 4, read-out: RS-4, 11 IC50); 0.004 ± 0.001 nM in the assay with RS4;11 (RS4-11, Table 5, read-out: IC50 (nM) RS4, 11); 0.003 ± 0.001 nM in the assay on HL60. The half-inhibitory concentration (IC50) with MV4; 11 turned out to be 0.06 ± 0.006 nM; with MonoMac6 it was 0.014 ± 0.004 nM. On BRD2, the “degradation of BRD2 protein (Western blot)” value is on record as “induce degradation”.
